Source: patent US20120122870A1, “Treatment Of Ischemia-Reperfusion Injury” (MUSC FOUNDATION FOR RESEARCH DEVELOPMENT, priority 2009, published 2012)

biological target: T1, recombinant human SK (Homo sapiens, UniProt Q9NYA1); assay: Recombinant human SK activity assay ([3H]sphingosine to [3H]S1P); format: biochemical; details: Human SK incubated with 6 μg/mL of compound; percentage of SK activity inhibited
T1 construct: GST (glutathione-S-transferase) (N); made in house; host or cells: bacteria (pGEX bacterial expression vector)
T1 sequence (Q9NYA1 whole entry): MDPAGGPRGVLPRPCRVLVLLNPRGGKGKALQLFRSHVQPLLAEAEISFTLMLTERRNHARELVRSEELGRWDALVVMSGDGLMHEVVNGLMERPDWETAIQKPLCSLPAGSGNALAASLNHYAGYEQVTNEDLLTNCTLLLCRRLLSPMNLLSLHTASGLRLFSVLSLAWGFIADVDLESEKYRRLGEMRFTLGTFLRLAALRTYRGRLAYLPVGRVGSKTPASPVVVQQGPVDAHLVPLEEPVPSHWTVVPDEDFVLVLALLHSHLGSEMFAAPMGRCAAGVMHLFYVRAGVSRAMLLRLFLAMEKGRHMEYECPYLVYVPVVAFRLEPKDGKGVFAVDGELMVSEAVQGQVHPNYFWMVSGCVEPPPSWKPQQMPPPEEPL
Procedure: SK activity is measured by incubation of the recombinant SK with [^3H]sphingosine and 1 mM ATP under defined conditions, followed by extraction of the assay mixture with chloroform:methanol under basic conditions. […] Radioactivity in aliquots of the aqueous phase is then quantified as a measure of [^3H]S1P formation.
(§1) Human SK was incubated with 6 μg/mL of the indicated compounds, and then assayed for activity as described above. Values in the column labeled “Recombinant SK (% inhibition)” represent the percentage of SK activity that was inhibited. MDA-MB-231 cells were incubated with 20 μg/mL of the indicated compounds and then assayed for endogenous SK activity as indicated above. Values in the column labeled “Cellular S1P (% inhibition)” represent the percentage of S1P production that was inhibited. Additionally, MDA-MB-231 cells were treated with varying concentration of certain compounds and the amount of S1P produced by the cells was determined. Values in the column labeled “Cellular S1P IC50 (μM)” represent the concentration of compound required to inhibit the production of S1P by 50%. ND=not determined.

| Compound | Recombinant SK (% inhibition) [%] | inhibition at 6 µg/mL [%] |
| --- | --- | --- |
| 4-(4-Chloro-phenyl)-thiazole-2-carboxylic acid 4-phenoxy benzylamide [B54] | 25 |  |
| O=C(NC1CC1)C12CC3CC(C1)CC(c1ccc(Cl)cc1)(C3)C2 [A2, 3-(4-Chloro-phenyl)-adamantane-1-carboxylic acid cyclopropylamide] |  | 0 |
| CCSCCNC(=O)C12CC3CC(C1)CC(c1ccc(Cl)cc1)(C3)C2 [A3, 3-(4-Chloro-phenyl)-adamantane-1-carboxylic acid (2-ethylsulfanyl-ethyl)-amide] |  | 6 |
| CSc1ccc(CNC(=O)C23CC4CC(C2)CC(c2ccc(Cl)cc2)(C4)C3)cc1 [A14, 3-(4-Chloro-phenyl)-adamantane-1-carboxylic acid 4-methylsulfanyl-benzylamide] |  | 19 |
| O=C(NCc1ccc(C(F)(F)F)cc1)C12CC3CC(C1)CC(c1ccc(Cl)cc1)(C3)C2 [A16, 3-(4-Chloro-phenyl)-adamantane-1-carboxylic acid 4-trifluoromethyl-benzylamide] |  | 8 |
| O=C(NCc1cc(C(F)(F)F)cc(C(F)(F)F)c1)C12CC3CC(C1)CC(c1ccc(Cl)cc1)(C3)C2 [A17, 3-(4-Chloro-phenyl)-adamantane-1-carboxylic acid 3,5-bis-trifluoromethyl-benzylamide] |  | 56 |

system: endogenous SK activity in MDA-MB-231 cells; assay: Cellular S1P production (endogenous SK activity) in MDA-MB-231 cells; format: cell-based; details: Homo sapiens, MDA-MB-231, MDA-MB-231 cells incubated with 20 μg/mL of compound; percentage of S1P production inhibited
Procedure: as §1

| Compound | inhibition at 20 µg/mL [%] |
| --- | --- |
| O=C(NCc1cc(F)cc(F)c1)c1nc(-c2ccc(Cl)cc2)cs1 [B36, 4-(4-Chloro-phenyl)-thiazole-2-carboxylic acid 3,5-difluoro-benzylamide] | 0 |
| O=C(NCc1ccc(Cl)c(C(F)(F)F)c1)c1nc(-c2ccc(Cl)cc2)cs1 [B37, 4-(4-Chloro-phenyl)-thiazole-2-carboxylic acid 4-chloro-3-trifluoromethyl-benzylamide] | 0 |
| O=C(NCc1ccc(F)cc1Cl)c1nc(-c2ccc(Cl)cc2)cs1 [B38, 4-(4-Chloro-phenyl)-thiazole-2-carboxylic acid 2-chloro-4-fluoro-benzylamide] | 0 |
| O=C(NCc1ccc(F)c(Cl)c1)c1nc(-c2ccc(Cl)cc2)cs1 [B39, 4-(4-Chloro-phenyl)-thiazole-2-carboxylic acid 3-chloro-4-fluoro-benzylamide] | 0 |
| O=C(NCc1ccc(F)c(F)c1)c1nc(-c2ccc(Cl)cc2)cs1 [B40, 4-(4-Chloro-phenyl)-thiazole-2-carboxylic acid 3,4-difluoro-benzylamide] | 0 |
| COc1ccc(CCNC(=O)c2nc(-c3ccc(Cl)cc3)cs2)cc1Br [B41, 4-(4-Chloro-phenyl)-thiazole-2-carboxylic acid [2-(3-bromo-4-methoxy-phenyl)-ethyl]-amide] | 0 |
| O=C(NCc1cc(F)c(F)c(F)c1)c1nc(-c2ccc(Cl)cc2)cs1 [B42, 4-(4-Chloro-phenyl)-thiazole-2-carboxylic acid 3,4,5-trifluoro-benzylamide] | 0 |
| O=C(NCc1cccc(OC(F)(F)F)c1)c1nc(-c2ccc(Cl)cc2)cs1 [B43, 4-(4-Chloro-phenyl)-thiazole-2-carboxylic acid 3-trifluoromethoxy-benzylamide] | 0 |
| O=C(NCCc1cccc(Oc2ccccc2)c1)c1nc(-c2ccc(Cl)cc2)cs1 [B44, 4-(4-Chloro-phenyl)-thiazole-2-carboxylic acid [2-(3-phenoxy-phenyl)-ethyl]-amide] | 0 |
| CN1CCCC1CCNC(=O)c1nc(-c2ccc(Cl)cc2)cs1 (centres unmarked) [B45, 4-(4-Chloro-phenyl)-thiazole-2-carboxylic acid [2-(1-methyl-pyrrolidin-2-yl)-ethyl]-amide] | 0 |
| CN1CCN(NC(=O)c2nc(-c3ccc(Cl)cc3)cs2)CC1 [B46, 4-(4-Chloro-phenyl)-thiazole-2-carboxylic acid (4-methyl-piperazin-1-yl)-amide] | 0 |
| Clc1ccc(-c2csc(N(CCCc3ccccc3)CCCc3ccccc3)n2)cc1 [B71, [4-(4-Chloro-phenyl)-thiazol-2-yl]-bis-(3-phenyl-propyl)-amine] | 15 |
| Clc1ccc(-c2csc(N(Cc3ccccc3)Cc3ccccc3)n2)cc1 [B72, Dibenzyl-[4-(4-chloro-phenyl)-thiazol-2-yl]-amine] | 27 |
| O=C(NCCN1CCOCC1)c1nc(-c2ccc(Cl)cc2)cs1 [B76, 4-(4-Chloro-phenyl)-thiazole-2-carboxylic acid (2-morpholin-4-yl-ethyl)-amide] | 81 |
| CN1CCCC1CCNC(=O)c1cccc(-c2ccc(Cl)cc2)c1 (centres unmarked) [B80, 4′-Chloro-biphenyl-3-carboxylic acid [2-(1-methyl-pyrrolidin-2-yl)-ethyl]-amide] | 70 |
| O=C(NCc1ccncc1)c1cccc(-c2ccc(Cl)cc2)c1 [B81, 4′-Chloro-biphenyl-3-carboxylic acid (pyridin-4-ylmethyl)-amide] | 14 |
| CN1CCC(NC(=O)c2cccc(-c3ccc(Cl)cc3)c2)CC1 [B82, 4′-Chloro-biphenyl-3-carboxylic acid (1-methyl-piperidin-4-yl)-amide] | 67 |
| O=C(Nc1ccc(O)cc1)c1cccc(-c2ccc(Cl)cc2)c1 [B83, 4′-Chloro-biphenyl-3-carboxylic acid (4-hydroxy-phenyl)-amide] | 55 |
| O=C(NCCc1ccncc1)c1cccc(-c2ccc(Cl)cc2)c1 [B84, 4′-Chloro-biphenyl-3-carboxylic acid (2-pyridin-4-yl-ethyl)-amide] | 76 |
| O=C(Nc1nc2cc(Cl)ccc2o1)c1ccccc1[N+](=O)[O-] [B87, N-(5-Chloro-benzooxazol-2-yl)-2-nitro-benzamide] | 64 |
| O=C(C=Cc1ccccc1)Nc1nc2cc(Cl)ccc2o1 [B88, N-(5-Chloro-benzooxazol-2-yl)-3-phenyl-acrylamide] | 46 |
| O=C(C=Cc1ccc([N+](=O)[O-])cc1)Nc1nc2cc(Cl)ccc2o1 [B89, N-(5-Chloro-benzooxazol-2-yl)-3-(4-nitro-phenyl)-acrylamide] | 74 |
| C=CCCCCCCCCC(=O)Nc1nc2cc(Cl)ccc2o1 [B90, Undec-10-enoic acid (5-chloro-benzooxazol-2-yl)-amide] | 39 |
| CCCCCCCCCCCCCC(=O)Nc1nc2cc(Cl)ccc2o1 [B91, Tetradecanoic acid (5-chloro-benzooxazol-2-yl)-amide] | 0 |
| CCCCCCCCCCCCCCCC(=O)Nc1nc2cc(Cl)ccc2o1 [B92, Hexadecanoic acid (5-chloro-benzooxazol-2-yl)-amide] | 4 |
| O=C(Nc1ccc(Cl)c(C(F)(F)F)c1)Nc1nc2cc(Cl)ccc2o1 [B93, 1-(5-Chloro-benzooxazol-2-yl)-3-(4-chloro-3-trifluoromethyl-phenyl)-urea] | 53 |
| O=C(Nc1ccc(Cl)c(C(F)(F)F)c1)Nc1nc2ccccc2s1 [B94, 1-Benzothiazol-2-yl-3-(4-chloro-3-trifluoromethyl-phenyl)-urea] | 13 |
| O=C(Nc1nc2cc(Cl)ccc2s1)c1ccccc1O [B96, N-(5-Chloro-benzothiazol-2-yl)-2-hydroxy-benzamide] | 18 |
| O=C(Nc1nc2cc(Cl)ccc2o1)c1cccc(F)c1 [B97, N-(5-Chloro-benzooxazol-2-yl)-3-fluoro-benzamide] | 38 |

same assay, conditions: Homo sapiens; MDA-MB-231 cells, varying concentrations; concentration inhibiting S1P production by 50%

| Compound | IC50 [µM] |
| --- | --- |
| O=C(NCCN1CCOCC1)c1nc(-c2ccc(Cl)cc2)cs1 [B76, 4-(4-Chloro-phenyl)-thiazole-2-carboxylic acid (2-morpholin-4-yl-ethyl)-amide] | 5 |
| O=C(Nc1nc2cc(Cl)ccc2o1)c1ccccc1[N+](=O)[O-] [B87, N-(5-Chloro-benzooxazol-2-yl)-2-nitro-benzamide] | 22 |
| O=C(C=Cc1ccc([N+](=O)[O-])cc1)Nc1nc2cc(Cl)ccc2o1 [B89, N-(5-Chloro-benzooxazol-2-yl)-3-(4-nitro-phenyl)-acrylamide] | 5.8 |
